For test [1], the target named is T1, AtPPO1 S305L L361D V365M (SEQ ID NO.133) (Arabidopsis thaliana, UniProt P55826, S305L/V365M/Y361D).
T1 sequence (P55826 35-537 S305L/Y361D/V365M): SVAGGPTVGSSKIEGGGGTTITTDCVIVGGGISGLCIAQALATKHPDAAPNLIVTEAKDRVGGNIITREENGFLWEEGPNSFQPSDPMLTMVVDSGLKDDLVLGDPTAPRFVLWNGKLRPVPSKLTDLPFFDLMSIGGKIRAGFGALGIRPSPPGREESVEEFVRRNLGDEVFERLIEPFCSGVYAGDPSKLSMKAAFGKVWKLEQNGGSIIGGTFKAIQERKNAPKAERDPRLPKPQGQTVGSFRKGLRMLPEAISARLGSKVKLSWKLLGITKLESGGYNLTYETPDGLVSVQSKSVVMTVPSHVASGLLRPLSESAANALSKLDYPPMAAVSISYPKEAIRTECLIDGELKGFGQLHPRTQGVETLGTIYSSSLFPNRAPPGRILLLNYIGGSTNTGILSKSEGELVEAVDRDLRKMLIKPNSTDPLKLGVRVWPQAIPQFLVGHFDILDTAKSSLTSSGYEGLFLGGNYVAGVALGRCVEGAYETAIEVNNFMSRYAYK
As to the kind of experiment: fluorescent Protoporphyrinogen Oxidase assay, crude extract. Type of test: biochemical. The settings on record: read-out: percentage inhibition.

In test [2] the target is T2, AtPPO1 V365L G404A L479N (SEQ ID NO.136) (Arabidopsis thaliana, UniProt P55826, G404A/L479N/V365L).
T2 construct: made in house; host or cells: E. coli BL21 (DE3) hemG, crude extract
T2 sequence (P55826 35-537 V365L/G404A/L479N): T1 sequence (P55826 35-537 S305L/Y361D/V365M) with L271S, D327Y, M331L, G370A, L445N
The test is described as above. Format: biochemical. The following applies: read-out: percentage inhibition.

Molecules are shown by their SMILES. Numbering of substitutions follows the chain as printed.

On to `C#CCN1C(=O)C(F)(F)Oc2cc(F)c(-n3c(=O)n(C)c(=S)n(C)c3=O)cc21` [Herbicide B, trifludimoxazin], for which, in test [1], the inhibition at 0.1 ppm was 96%, the inhibition at 1 ppm was 100%, the inhibition at 10 ppm is 100% and the inhibition at 100 ppm came out at 100%. In test [2], the inhibition at 0.1 ppm was found to be 79%, the inhibition at 1 ppm is 100%, the inhibition at 10 ppm amounted to 100% and the inhibition at 100 ppm amounted to 100%.

For `CCOC(=O)COc1ncccc1Oc1cc(-n2c(=O)cc(C(F)(F)F)n(C)c2=O)c(F)cc1Cl` [Herbicide A, epyrifenacil], in test [1], the inhibition at 0.1 ppm was determined as 9%, the inhibition at 1 ppm stood at 53%, the inhibition at 10 ppm was found to be 84% and the inhibition at 100 ppm turned out to be 100%. Also, in test [2], the inhibition at 0.1 ppm was found to be 58%, the inhibition at 1 ppm was determined as 95%, the inhibition at 10 ppm is 100% and the inhibition at 100 ppm was found to be 100%.

Regarding `CCOC(=O)[C@]1(C)CC(c2cc(-n3c(=O)n(C)c(=S)n(C)c3=O)c(F)cc2Cl)=NO1` [Herbicide D, ethyl (5S)-3-[2-chloro-5-(3,5-dimethyl-2,6-dioxo-4-thioxo-1,3,5-triazinan-1-yl)-4-fluoro-phenyl]-5-methyl-4H-isoxazole-5-carboxylate], in test [1], the inhibition at 0.1 ppm is 37%, the inhibition at 1 ppm came to 87%, the inhibition at 10 ppm came to 99% and the inhibition at 100 ppm is 100%. Besides, in test [2], the inhibition at 0.1 ppm turned out to be 4%, the inhibition at 1 ppm is 75%, the inhibition at 10 ppm was determined as 99% and the inhibition at 100 ppm turned out to be 100%.

On to `CC(C)N(C)S(=O)(=O)NC(=O)c1cc(-n2c(=O)cc(C(F)(F)F)n(C)c2=O)c(F)cc1Cl` [Herbicide E, saflufenacil], for which, in test [1], the inhibition at 0.1 ppm was found to be 0%, the inhibition at 1 ppm came out at 10%, the inhibition at 10 ppm is 76% and the inhibition at 100 ppm was 88%. Also, in test [2], the inhibition at 0.1 ppm came to 0%, the inhibition at 1 ppm was 39%, the inhibition at 10 ppm was 86% and the inhibition at 100 ppm came to 100%.

Take `CCOC(=O)C1(C)CC(c2cc(-n3c(=O)cc(C(F)(F)F)n(C)c3=O)c(F)cc2Cl)=NO1` (stereo not shown) [Herbicide C, 3-(2-chloro-4-fluoro-5-(3-methyl-2,6-dioxo-4-trifluoromethyl-3,6-dihydropyrimidin-1(2H)-yl)phenyl)-5-methyl-4,5-dihydroisoxazole-5-carboxylic acid ethyl ester]: in test [1], the inhibition at 0.1 ppm came out at 30%, the inhibition at 1 ppm came out at 56%, the inhibition at 10 ppm was determined as 92% and the inhibition at 100 ppm amounted to 100%. Besides, in test [2], the inhibition at 0.1 ppm turned out to be 34%, the inhibition at 1 ppm stood at 90%, the inhibition at 10 ppm is 99% and the inhibition at 100 ppm stood at 100%.

The record behind these values is patent US20260297542A1, “HERBICIDE RESISTANT PLANTS” (SYNGENTA CROP PROTECTION AG, priority 2023, published 2026).
